The record followed here is US9938269B2, “Inhibitor compounds of phosphodiesterase type 10A” (ABBVIE INC., priority 2011, dated 2018).

The structures appear in SMILES notation. Structures can show the parent of a compound that is named as a salt.

One may read the IC50 as the concentration that gives 50% inhibition. Broadly, the microsomal CLint is a measure of how fast metabolising enzymes remove a compound, apart from limits set by blood flow. High values mean faster metabolism, low ones greater metabolic stability.

For data set [1], the target named is T1, PDE10A (human) (Homo sapiens, UniProt Q9Y233).
T1 construct: purchased BPS Bioscience
As to the kind of experiment: Measurement of PDE activity (HTRF cAMP kit), human PDE10A. Conditions: PDE enzymatic reaction, substrate 20 nM for PDE10, 60 minutes at 29 C. The class given is biochemical. The method in brief:
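HTRF detection of cAMP left after hydrolysis, expressed as percent of uninhibited control to derive IC50. Reaction: serially diluted inhibitor mixed with recombinant enzyme, started with 20 nM cAMP, 60 min at 29 °C in Tris-HCl pH 7.5 buffer containing MgCl2 and BSA.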
On the technique in general: In TR-FRET formats the signal depends on donor and acceptor labels being close together.

Data set [2] is described as follows: Determination of the microsomal half-life, human liver microsomes. Conditions: human, liver microsomes, pH 7.4.
Data set [3] in a line: Determination of the microsomal half-life, rat liver microsomes. As to conditions: rat, liver microsomes, pH 7.4. On the technique in general: Liver microsomes are vesicles of endoplasmic reticulum, rich in cytochrome P450 enzymes.

T1 sequence (Q9Y233 whole entry): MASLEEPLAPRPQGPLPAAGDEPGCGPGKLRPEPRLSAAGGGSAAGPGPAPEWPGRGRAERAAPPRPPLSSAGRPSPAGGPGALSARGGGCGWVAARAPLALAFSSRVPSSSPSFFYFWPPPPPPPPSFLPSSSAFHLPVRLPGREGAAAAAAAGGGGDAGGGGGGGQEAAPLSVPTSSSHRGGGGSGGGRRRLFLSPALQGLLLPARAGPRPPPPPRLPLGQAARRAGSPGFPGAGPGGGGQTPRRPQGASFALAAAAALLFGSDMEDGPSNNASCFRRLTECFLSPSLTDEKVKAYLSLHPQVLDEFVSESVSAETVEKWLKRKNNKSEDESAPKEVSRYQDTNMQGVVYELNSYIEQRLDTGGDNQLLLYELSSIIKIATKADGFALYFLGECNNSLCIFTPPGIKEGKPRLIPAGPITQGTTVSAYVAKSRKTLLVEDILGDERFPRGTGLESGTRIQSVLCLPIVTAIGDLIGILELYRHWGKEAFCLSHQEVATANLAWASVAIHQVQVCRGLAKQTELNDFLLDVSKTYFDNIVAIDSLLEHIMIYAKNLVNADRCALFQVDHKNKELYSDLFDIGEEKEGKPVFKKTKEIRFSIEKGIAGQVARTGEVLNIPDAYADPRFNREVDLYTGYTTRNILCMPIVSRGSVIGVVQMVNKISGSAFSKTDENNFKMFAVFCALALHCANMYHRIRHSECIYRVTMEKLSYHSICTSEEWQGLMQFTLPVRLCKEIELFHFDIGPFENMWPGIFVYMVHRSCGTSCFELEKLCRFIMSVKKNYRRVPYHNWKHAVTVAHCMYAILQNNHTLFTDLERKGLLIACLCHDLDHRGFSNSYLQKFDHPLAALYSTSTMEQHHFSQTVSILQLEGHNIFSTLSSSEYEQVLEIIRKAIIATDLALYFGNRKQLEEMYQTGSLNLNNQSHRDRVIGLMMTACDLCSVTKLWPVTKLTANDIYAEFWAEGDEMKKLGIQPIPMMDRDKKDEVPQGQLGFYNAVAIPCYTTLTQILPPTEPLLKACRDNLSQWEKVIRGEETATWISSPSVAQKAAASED

As to `Cn1c(CCN2Cc3cccc(N4CCOCC4)c3C2=O)nc2ccccc21` [Example 153, 2-[2-(1-Methyl-1H-benzoimidazol-2-yl)-ethyl]-7-morpholin-4-yl-2,3-dihydro-isoindol-1-one], in data set [1], the IC50 was less than 100 nM. The microsomal CLint at 0.5 μM in data set [2] and in data set [3] was less than 100 µL/min/mg in each case.
The molecule `Cc1ccc2c(c1)nc(CCN1Cc3nccc(-c4cccnc4)c3C1=O)n2C` [compound 539, 6-[2-(1,5-Dimethylbenzimidazol-2-yl)ethyl]-4-(3-pyridyl)-7H-pyrrolo[3,4-b]pyridin-5-one] had an IC50 in data set [1] of less than 100 nM. The microsomal CLint at 0.5 μM in data set [2] and in data set [3] was less than 100 µL/min/mg throughout.
In turn, `COc1ccc(-c2cccnc2)c2c1CN(CCc1ccc3ccccc3n1)C2=O` [Example 185, 4-Methoxy-7-pyridin-3-yl-2-(2-quinolin-2-yl-ethyl)-2,3-dihydro-isoindol-1-one trifluoroacetate] registered an IC50 in data set [1] of less than 100 nM. In addition, the values for the microsomal CLint at 0.5 μM in data set [2] and in data set [3] were more than 220 µL/min/mg and 100 to 220 µL/min/mg, respectively.
The molecule `O=C1c2c(N3CCC4(COC4)C3)ccnc2CN1CCc1ccc2ccccc2n1` [Example 257, 4-(2-Oxa-6-aza-spiro[3.4]oct-6-yl)-6-(2-quinolin-2-yl-ethyl)-6,7-dihydro-pyrrolo[3,4-b]pyridin-5-one] showed an IC50 in data set [1] of less than 100 nM. Further, the microsomal CLint at 0.5 μM in data set [2] and in data set [3] was 100 to 220 µL/min/mg each time.
In data set [1], `O=C1Cc2ccc(-c3cccc4c3C(=O)N(CCc3cn5ccccc5n3)C4)cc2N1` [Example 241, 6-[2-(2-Imidazo[1,2-a]pyridin-2-yl-ethyl)-3-oxo-2,3-dihydro-1H-isoindol-4-yl]-1,3-dihydro-indol-2-one] registered an IC50 of less than 100 nM. The microsomal CLint at 0.5 μM in data set [2] and in data set [3] was less than 100 µL/min/mg each time.
The molecule `CNCc1ccc(-c2cccc3c2C(=O)N(CCc2ccc4ccccc4n2)C3)cc1` [Example 194, 7-(4-Methylaminomethyl-phenyl)-2-(2-quinolin-2-yl-ethyl)-2,3-dihydro-isoindol-1-one] gave an IC50 in data set [1] of 200 to 500 nM. Besides, the microsomal CLint at 0.5 μM in data set [2] and in data set [3] was 100 to 220 µL/min/mg each time.
Regarding `O=C1c2c(cccc2-c2ccncc2)CN1CCc1nc2ccccc2s1` [Example 223, 2-(2-Benzothiazol-2-yl-ethyl)-7-pyridin-4-yl-2,3-dihydro-isoindol-1-one trifluoroacetate], the IC50 in data set [1] was less than 100 nM. For the same molecule, the intrinsic clearance (microsomal CLint) at 0.5 μM in data set [2] and in data set [3] was less than 100 µL/min/mg in each case.
For the molecule `O=C1c2cccc(N3CCOCC3)c2CN1CCc1ccc2ccccc2n1` [Example 130, 4-Morpholin-4-yl-2-(2-quinolin-2-yl-ethyl)-2,3-dihydro-isoindol-1-one; compound with trifluoro-acetic acid], in data set [1], the IC50 was less than 100 nM. In addition, the microsomal CLint at 0.5 μM is 100 to 220 µL/min/mg in data set [2] and more than 220 µL/min/mg in data set [3].
In data set [1], `O=C1c2c(N3CCOCC3)ccnc2CN1CCc1ccc(-c2ccccc2)cn1` [compound 486, 4-Morpholino-6-[2-(5-phenyl-2-pyridyl)ethyl]-7H-pyrrolo[3,4-b]pyridin-5-one] had an IC50 of less than 100 nM. In addition, the values for the intrinsic metabolic clearance (microsomal CLint) at 0.5 μM in data set [2] and in data set [3] were 100 to 220 µL/min/mg and more than 220 µL/min/mg, respectively.
For the molecule `O=C1c2c(-c3cccnc3)ccnc2CN1CCc1ccc2ccccc2n1` [Example 329, 4-Pyridin-3-yl-6-(2-quinolin-2-yl-ethyl)-6,7-dihydro-pyrrolo[3,4-b]pyridin-5-one], in data set [1], the IC50 is less than 100 nM. For the same molecule, the microsomal CLint at 0.5 μM in data set [2] and in data set [3] was 100 to 220 µL/min/mg in each case.
Regarding `CCc1ccc(CCN2Cc3nccc(-c4ccncc4)c3C2=O)nc1` [compound 501, 6-[2-(5-Ethyl-2-pyridyl)ethyl]-4-(4-pyridyl)-7H-pyrrolo[3,4-b]pyridin-5-one trifluoroacetate], the IC50 in data set [1] was 100 to 200 nM. The microsomal CLint at 0.5 μM in data set [2] was less than 100 µL/min/mg; in data set [3], 100 to 220 µL/min/mg.
In turn, `O=C1c2c(-c3cc[nH]n3)ccnc2CN1CCc1nc2ccccc2s1` [compound 429, 6-[2-(1,3-Benzothiazol-2-yl)ethyl]-4-(1H-pyrazol-3-yl)-7H-pyrrolo[3,4-b]pyridin-5-one] returned an IC50 in data set [1] of less than 100 nM. The microsomal CLint at 0.5 μM in data set [2] and in data set [3] was less than 100 µL/min/mg in each case.
In data set [1], `O=C1c2c(-c3ccoc3)ccnc2CN1CCc1nc2ccccc2s1` [compound 422, 6-[2-(1,3-Benzothiazol-2-yl)ethyl]-4-(3-furyl)-7H-pyrrolo[3,4-b]pyridin-5-one trifluoroacetate] showed an IC50 of less than 100 nM. The intrinsic clearance (microsomal CLint) at 0.5 μM in data set [2] is less than 100 µL/min/mg; in data set [3], 100 to 220 µL/min/mg.
The matching figures for `O=C1c2c(-c3ccncc3)ccnc2CN1CCc1nc2ccc(F)cc2s1` [compound 402, 6-[2-(6-Fluoro-1,3-benzothiazol-2-yl)ethyl]-4-(4-pyridyl)-7H-pyrrolo[3,4-b]pyridin-5-one]: less than 100 nM, 100 to 220 µL/min/mg and 100 to 220 µL/min/mg.
With `Cc1ncccc1-c1cccc2c1C(=O)N(CCc1cn3ccccc3n1)C2` [Example 240, 2-(2-Imidazo[1,2-a]pyridin-2-yl-ethyl)-7-(2-methyl-pyridin-3-yl)-2,3-dihydro-isoindol-1-one], the 50% inhibitory concentration (IC50) in data set [1] is less than 100 nM. Besides, the microsomal CLint at 0.5 μM in data set [2] was less than 100 µL/min/mg; in data set [3] it was 100 to 220 µL/min/mg.
The molecule `O=C1c2c(N3CCOCC3)ccnc2CN1CCc1ccc2sccc2n1` [compound 491, 4-Morpholino-6-(2-thieno[3,2-b]pyridin-5-ylethyl)-7H-pyrrolo[3,4-b]pyridin-5-one] came in with an IC50 in data set [1] of less than 100 nM. Also, the microsomal CLint at 0.5 μM in data set [2] and in data set [3] was 100 to 220 µL/min/mg throughout.
Molecule `COc1ccc(-c2ccnc3c2C(=O)N(CCc2ccc4ccccc4n2)C3)cc1` [Example 161, 4-(4-Methoxy-phenyl)-6-(2-quinolin-2-yl-ethyl)-6,7-dihydro-pyrrolo[3,4-b]pyridin-5-one] showed an IC50 in data set [1] of less than 100 nM. The microsomal CLint at 0.5 μM was 100 to 220 µL/min/mg in data set [2] and more than 220 µL/min/mg in data set [3].
For `O=C1c2c(-c3cn[nH]c3)ccnc2CN1CCc1nc2ccccc2s1` [compound 538, 6-[2-(1,3-Benzothiazol-2-yl)ethyl]-4-(1H-pyrazol-4-yl)-7H-pyrrolo[3,4-b]pyridin-5-one trifluoroacetate], in data set [1], the IC50 is less than 100 nM. The microsomal CLint at 0.5 μM was less than 100 µL/min/mg in data set [2] and 100 to 220 µL/min/mg in data set [3].
For `CC(C)c1ccc(CCN2Cc3nccc(-c4ccncc4)c3C2=O)nc1` [compound 398, 6-[2-(5-Isopropyl-2-pyridyl)ethyl]-4-(4-pyridyl)-7H-pyrrolo[3,4-b]pyridin-5-one], in that order: less than 100 nM, 100 to 220 µL/min/mg and more than 220 µL/min/mg.
For `O=C1c2c(cccc2N2CCNCC2)CN1CCc1ccc2ccccc2n1` [Example 102, 7-piperazin-1-yl-2-(2-quinolin-2-yl-ethyl)-2,3-dihydro-isoindol-1-one], in that order: 200 to 500 nM, less than 100 µL/min/mg and 100 to 220 µL/min/mg.
